# Reference: ChEMBL document CHEMBL5230160, “Chemotherapeutics for Toxoplasma gondii: Molecular Biotargets, Binding Modes, and Structure-Activity Relationship Investigations” (J Med Chem, 2021)
# Experiments:
# Histone deacetylase 1 = Histone deacetylase 1 (Homo sapiens, UniProt Q13547); experiment: Inhibition of HDAC1 in human HeLa nuclear extract incubated for 30 mins by fluorescence based analysis; assay type: cell-free
# Toxoplasma gondii [1] = experiment: Antiparasitic activity against Toxoplasma gondii type I infected in human foreskin fibroblast incubated for 24 hrs by Hoechst staining based microscopic analysis; assay type: functional, organism-based
# Toxoplasma gondii [2] = experiment: Antiparasitic activity against Toxoplasma gondii type II infected in human foreskin fibroblast incubated for 24 hrs by Hoechst staining based microscopic analysis; assay type: functional, organism-based
# [3] = Selectivity index, ratio of IC50 for inhibition of Toxoplasma gondii HDAC3 to IC50 for antiparasitic activity against Toxoplasma gondii infected in HFF cells; assay type: toxicity, cell-based; settings: human
# Toxoplasma gondii [4] = experiment: Antiparasitic activity against Toxoplasma gondii infected in HFF cells assessed as parasitic growth inhibition by MTT assay; assay type: functional, organism-based
# Toxoplasma gondii [5] = experiment: Antiparasitic activity against Toxoplasma gondii RH tachyzoites infected in HFF cells in presence of CPRG by crystal violet staining based analysis; assay type: functional, organism-based
# [6] = Inhibition of Toxoplasma gondii GST-taggged IF2Kalpha in presence of ATP by ADP-Glo kinase assay
# Toxoplasma gondii [7] = experiment: Antiparasitic activity against Toxoplasma gondii RH tachyzoites infected in mouse BV-2 cells assessed as parasitic growth inhibition at 100 ug/ml by inverted fluorescence microscopic analysis relative to control; assay type: functional; design: scale not given: the % may be the effect or the level left; settings: dose 100 µg/ml
# [8] = Inhibition of Toxoplasma gondii HDAC3
# Toxoplasma gondii [9] = experiment: Antiparasitic activity against Toxoplasma gondii infected in African green monkey Vero cells assessed as parasitic growth inhibition incubated for 24 hrs by PCR method; assay type: functional, organism-based
# Toxoplasma gondii [10] = experiment: Antiparasitic activity against Toxoplasma gondii infected in mouse at 50 mg/kg assessed as reduction in parasitic growth; assay type: functional; design: scale not given: the % may be the effect or the level left
# Toxoplasma gondii [11] = experiment: Antiparasitic activity against Toxoplasma gondii tachyzoites; assay type: functional, organism-based; settings: Toxoplasma gondii; read-out: EC50
# Toxoplasma gondii [12] = experiment: Antiparasitic activity against Toxoplasma gondii RH tachyzoites infected in human foreskin fibroblast at 1 uM incubated for 24 hrs by phase-contrast microscopy relative to control; assay type: functional
# Chain of Histone deacetylase 1 (Q13547 whole entry): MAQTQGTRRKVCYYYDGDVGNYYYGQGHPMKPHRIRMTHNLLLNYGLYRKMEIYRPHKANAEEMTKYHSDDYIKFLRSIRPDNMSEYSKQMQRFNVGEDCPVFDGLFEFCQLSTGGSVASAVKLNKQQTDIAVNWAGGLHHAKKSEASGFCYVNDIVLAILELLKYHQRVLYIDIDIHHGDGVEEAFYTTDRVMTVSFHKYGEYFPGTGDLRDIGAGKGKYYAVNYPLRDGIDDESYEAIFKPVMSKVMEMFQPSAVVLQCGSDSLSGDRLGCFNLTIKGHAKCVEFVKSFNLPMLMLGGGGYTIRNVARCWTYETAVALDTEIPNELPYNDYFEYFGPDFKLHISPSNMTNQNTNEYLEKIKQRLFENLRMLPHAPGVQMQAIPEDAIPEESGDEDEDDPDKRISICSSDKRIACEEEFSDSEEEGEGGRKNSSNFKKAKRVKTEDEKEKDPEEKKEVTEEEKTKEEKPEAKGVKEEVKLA
smiles,measurement,setting,value
COc1cccc(CC(=O)Nc2ccc(C(=O)NO)cc2)c1,IC50,Histone deacetylase 1,495 nM
same,IC50,Toxoplasma gondii [1],350 nM
same,IC50,Toxoplasma gondii [2],2270 nM
CC[C@]1(C)NC(=O)[C@H](CCCCCC(=O)[C@@H](C)OC(=S)Oc2ccccc2)NC(=O)[C@H]2C[C@H](C)CN2C(=O)[C@H](Cc2ccccc2)NC1=O,Ratio IC50,[3],47.7
same,EC50,Toxoplasma gondii [4],11.3 nM
Cn1cc(-c2ccc3c(c2)CCN3C(=O)Cc2cccc(C(F)(F)F)c2)c2c(N)ncnc21,IC50,Toxoplasma gondii [5],620 nM
same,IC50,[6],0.4 nM
CC(C)=CCC[C@](C)(O)[C@H]1CC[C@]2(C)[C@@H]1[C@H](O)C[C@@H]1[C@@]3(C)CC[C@H](O[C@@H]4O[C@H](CO)[C@@H](O)[C@H](O)[C@H]4O)C(C)(C)[C@@H]3CC[C@]12C [GINSENOSIDE RH2],Activity,Toxoplasma gondii [7],63.4%
CC[C@]1(C)NC(=O)[C@H](CCCCCC(=O)[C@@H](C)O)NC(=O)[C@H]2CCCN2C(=O)[C@H](Cc2ccccc2)NC1=O,IC50,[8],22 nM
C=CCc1cc(OC)c(O[C@@H](C)[C@H](O)c2ccc(O)c(OC)c2)c(OC)c1,EC50,Toxoplasma gondii [9],32.4 µg/mL
C/C=C/c1cc(OC)c2c(c1)[C@@H](C)[C@H](c1ccc3c(c1)OCO3)O2 [LICARINE B],Activity,Toxoplasma gondii [10],90%
same,EC50,Toxoplasma gondii [11],14 µg/mL
CCCCCCCCCCCCc1c(C)n(O)c2ccc(OCCN(C)C)cc2c1=O,Activity,Toxoplasma gondii [12],38%
